Test results: patent publication KR20150001353A, “Fms 키나아제 저해 활성을 갖는 피리미딘 유도체” (한미약품 주식회사, priority 2013, dated 2015)

Experiments:
[1] = target: T1, recombinant human FMS kinase (재조합 인간 FMS 키나아제) (Homo sapiens, UniProt P07333); assay: FMS kinase inhibitory activity evaluation (Test Example 1; FRET, Z'-Lyte kinase assay-Tyr 1 peptide kit); format: biochemical; settings: 0.3 µg/mL FMS, 150 μM ATP, room temperature, 1 h
T1 construct: purchased Invitrogen pv3249

[2] = tested on: M-NFS-60 cell line (M-NFS-60 세포주); assay: M-NFS-60 cell line evaluation (Test Example 2; MTT, CellTiter 96 Assay); format: cell-based; settings: recombinant M-CSF 20 ng/mL, 5% FBS, compound 10 μM to 0.1 nM, 590 nm

T1 sequence (P07333 20-972): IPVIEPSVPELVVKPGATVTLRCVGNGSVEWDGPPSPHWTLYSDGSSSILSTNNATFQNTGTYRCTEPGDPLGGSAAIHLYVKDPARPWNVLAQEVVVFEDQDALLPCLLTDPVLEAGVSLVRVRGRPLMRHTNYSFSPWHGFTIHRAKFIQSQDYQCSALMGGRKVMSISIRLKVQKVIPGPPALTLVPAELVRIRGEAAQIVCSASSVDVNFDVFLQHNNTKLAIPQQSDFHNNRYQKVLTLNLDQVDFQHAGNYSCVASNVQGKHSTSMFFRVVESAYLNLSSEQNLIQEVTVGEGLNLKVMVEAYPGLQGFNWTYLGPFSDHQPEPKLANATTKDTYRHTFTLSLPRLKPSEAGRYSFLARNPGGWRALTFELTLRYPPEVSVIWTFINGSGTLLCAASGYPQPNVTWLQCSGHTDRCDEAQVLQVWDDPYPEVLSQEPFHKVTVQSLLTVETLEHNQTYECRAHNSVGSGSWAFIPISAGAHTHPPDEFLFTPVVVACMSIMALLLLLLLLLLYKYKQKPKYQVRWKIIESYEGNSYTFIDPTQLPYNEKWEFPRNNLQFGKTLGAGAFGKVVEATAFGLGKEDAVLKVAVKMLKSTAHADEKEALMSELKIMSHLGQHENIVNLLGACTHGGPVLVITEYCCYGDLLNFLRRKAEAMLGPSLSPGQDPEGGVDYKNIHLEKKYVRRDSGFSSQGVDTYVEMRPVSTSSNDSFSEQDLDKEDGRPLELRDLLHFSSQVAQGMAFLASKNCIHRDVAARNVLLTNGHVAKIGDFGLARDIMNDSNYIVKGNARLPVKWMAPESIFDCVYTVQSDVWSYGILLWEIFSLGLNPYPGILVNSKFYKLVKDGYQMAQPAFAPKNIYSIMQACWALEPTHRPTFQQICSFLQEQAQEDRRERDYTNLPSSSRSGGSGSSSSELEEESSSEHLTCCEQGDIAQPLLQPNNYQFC

Row | SMILES | IC50 [1] | IC50 [2]
1 | COc1ccc(CNc2cc(N(C)C(=O)Nc3cccc4c3c(C)nn4Cc3cccc(F)n3)ncn2)c(OC)c1 [실시예 9, 1-(6-(2,4-디메톡시벤질아미노)피리미딘-4-일)-3-(1-((6-플루오로피리딘-2-일)메틸)-3-메틸-1H-인다졸-4-일)-1-메틸우레아] | 65 nM | –
2 | COc1cccc(Cn2nc(C)c3c(NC(=O)N(C)c4cc(N)ncn4)cccc32)c1 [실시예 18, 1-(6-아미노피리미딘-4-일)-3-(1-(3-메톡시벤질)-3-메틸-1H-인다졸-4-일)-1-메틸우레아] | 14 nM | 201 nM
